Data from patent US20230310412A1, “USE OF CASPASE INHIBITOR FOR ALLEVIATING OR TREATING OSTEOARTHRITIS” (LG CHEM, LTD., priority 2020, published 2023).
Entries after “also recorded” stand apart in the source; their conditions may differ.

Experiments:
[1] = tested on: osteoarthritis-induced beagle dogs; assay: Efficacy on improving walking ability (lameness score) in animal model of osteoarthritis; assay type: in vivo
Protocol: Beagle dogs were purchased from Orient Bio, and healthy animals were used for the experiment after a one-week quarantine cycle. After 1 week of recovery after surgical anterior cruciate ligament transection with medial meniscectomy, forced exercise for 30 minutes every day was carried out to induce osteoarthritis. The surgery for inducing osteoarthritis was performed under anesthesia after the animals were depilated on both knees. After broad disinfection of the incision site with povidone and 70% ethanol, the skin of the right knee was incised. By blunt dissection of the surrounding tissues, the articular surface of the distal end of femur was exposed. An instrument portal was created on the medial articular surface, and the meniscus and anterior cruciate ligament were excised. Wound closure was performed by the use of 4-0 nylon suture. […] The assessment about walking ability for evaluating the pain status and functional level of osteoarthritis animals was carried out according to the method proposed by Pashuck et al. (Troy D. Pashuck et al., J Orthop Res, 2016, 34(10): 1772-1779), and the lameness score as represented in Table 1 was recorded until the end of the experiment. […] The efficacy of nivocasan in an animal model of osteoarthritis was measured by evaluating the lameness score twice a week after a single intra-articular administration. […]

[2] = tested on: beagle dog model of osteoarthritis; assay: MRI evaluation of effect on joint structure in animal model of osteoarthritis; assay type: in vivo; conditions: MRI before vs 3 months after single intra-articular administration; FIG. 6
Protocol: In a beagle dog model of osteoarthritis induced by daily forced exercise after surgical anterior cruciate ligament transection with medial meniscectomy, the effect on joint structure was evaluated by taking an MRI (SIGNA Pioneer 3.0T MR, GE Healthcare Co., USA) of the joint before a single intra-articular administration and 3 months thereafter.

[3] = tested on: IL-1β secretion in THP-1 cells; assay: Suppressive efficacy against LPS/nigericin-induced IL-1β secretion in THP-1 cells; assay type: cell-based, human; conditions: PMA-differentiated, LPS 100 ng/ml 24 h, compound 30 min, then 5 μM nigericin & 1 mM ATP 1 h, ELISA, FIG. 1
Protocol: To evaluate the inflammation blocking effects of nivocasan, IL-1β secretion was measured in THP-1 cells under conditions in which inflammation was induced by lipopolysaccharide (LPS)/nigericin treatment. The day before LPS treatment, THP-1 cells were plated at 2.5×10^5 cells/well (24-well plate) in RPMI-1640 media and treated with 0.5 μM phorbol 12-myristate 13-acetate (PMA) for macrophage differentiation during overnight culture. The media was then changed with Opti-MEM media and the cells were incubated with LPS 100 ng/ml (the first inflammation signal for […] up-regulation) for 24 hours. The cells were then washed with PBS twice and treated with nivocasan or DMSO for 30 minutes in Opti-MEM media, followed by incubation with 5 μM nigericin & 1 mM ATP for 1 hour to activate inflammasome (NLRP3 activation and IL-1β secretion). Secreted IL-1β was measured from cell media by using R&D Systems Quantikine human IL-1β (detection limit: 7.8 pg/ml), and the results are represented in FIG. 1.

[4] = tested on: IL-1β secretion in human peripheral blood mononuclear cells (PBMCs); assay: Suppressive efficacy against LPS-induced IL-1β secretion in human-derived PBMC; assay type: cell-based; conditions: FIG. 2
Protocol: The inhibitory effects of nivocasan on inflammasome activation in human peripheral blood mononuclear cells (PBMCs) were evaluated by measuring LPS-induced IL-1β secretion. Freshly isolated PBMCs were plated at 2.5×10^5 cells/well (24-well plate) in RPMI-1640 media and treated with nivocasan or DMSO for 30 minutes, followed by incubation with 100 ng/ml LPS for 24 hours to induce inflammation. Levels of IL-1β in PBMC supernatants was measured by ELISA (R&D Systems Quantikine human IL-1β; detection limit: 7.8 pg/ml), and the results are represented in FIG. 2.

human chondrocytes = assay: Protective effect on TNF-α-induced apoptosis in human-derived chondrocytes; assay type: cell-based; conditions: human normal chondrocytes, compound 30 min, then 10 ng/ml TNF-α and 1 μg/ml actinomycin D 18 h; Cell Death Detection ELISA; FIG. 3
Protocol: The protective effect of nivocasan on TNF-α-induced apoptosis was evaluated in human chondrocytes. Human normal chondrocytes were plated at 1×10^5 cells/well (collagen-coated 24-well plate) in chondrocyte media (Prigrow IV Medium, Applied Biological Materials Inc.) and incubated overnight. The cells were treated with nivocasan or DMSO for 30 minutes, followed by incubation with 10 ng/ml human recombinant TNF-α and 1 μg/ml actinomycin D for 18 hours to induce apoptosis. Apoptosis was measured by using Cell Death Detection ELISA kit, and the results are represented in FIG. 3.

[5] = tested on: beagle dog model of osteoarthritis; assay: Histopathological evaluation of effect on joint in animal model of osteoarthritis; assay type: in vivo
Protocol: In a beagle dog model of osteoarthritis induced by daily forced exercise after surgical anterior cruciate ligament transection with medial meniscectomy, an autopsy was performed 3 months after a single intra-articular administration, and the joint was collected and fixed. The fixed tissue was subjected to conventional tissue processing such as demineralization, trimming, dehydration, paraffin embedding, sectioning and the like to prepare a specimen for histopathological examination, followed by hematoxylin eosin and safranin-o staining. An optical microscopy (Olympus BX53, Japan) was used to observe histopathological changes.
Histopathological evaluation was performed by comparing between groups with scoring as shown in Tables 3 to 8 according to the method proposed by Cook et al. (Cook et al., Osteoarthritis Cartilage. 2010; 18 Suppl 3:S66-S79), and the results are represented in FIG. 7.

Compound	improvement of walking ability (lameness score), compared with nivocasan ([1]; single intra-articular administration of 10 mg, FIG. 5)	bone marrow lesion (MRI score) [2]	synovitis (MRI score) [2]	suppression of LPS/nigericin-induced IL-1β secretion [3]	concentration showing maximum effect on LPS-induced IL-1β secretion ([4]; 100 ng/ml LPS 24 h)	suppression of LPS-induced IL-1β secretion ([4]; compound 30 min, then 100 ng/ml LPS 24 h, ELISA)	prevention of TNF-α-induced apoptosis (human chondrocytes)	improvement of walking ability (lameness score) ([1]; single intra-articular administration 0.1, 0.3, 1, 3 and 10 mg/knee, scored twice a week for 3 months, FIG. 4)	histopathology evaluation of the joints ([5]; autopsy 3 months after single intra-articular administration, FIG. 7)	improving cartilage structure ([5]; single administration, summary of Examples 4 to 6)
C[C@H](NC(=O)C(=O)Nc1ccccc1C(C)(C)C)C(=O)N[C@@H](CC(=O)O)C(=O)COc1c(F)c(F)cc(F)c1F [emricasan, N-(2-tert-butylphenyl)-2-oxoglycyl-N-[1(S)-(carboxymethyl)-2-oxo-3-(2,3,5,6-tetrafluorophenoxy)propyl]-L-alaninamide, reference compound]	improvement of a walking ability similar to that of 10 mg of nivocasan	improvement	improvement	–	–	–	–	–	–	–
CC(C)[C@@]1(C(=O)N[C@H]2CC(=O)O[C@]2(O)CF)CC(c2nccc3ccccc23)=NO1 [nivocasan, (R)—N-((2S,3S)-2-(fluoromethyl)-2-hydroxy-5-oxotetrahydrofuran-3-yl]-5-isopropyl-3-(isoquinolin-1-yl)-4,5-dihydroisoxazole-5-carboxamide]	–	improvement	improvement	suppressed LPS/nigericin-induced IL-1β secretion in THP-1 cells in a dose-dependent manner	0.3 µM	suppressed LPS-induced IL-1β secretion from PBMCs in a dose dependent manner	prevented TNF-α-induced apoptosis in human chondrocytes in a dose-dependent manner	showed the efficacy of the improvement of walking ability in a dose-dependent manner; also recorded: effective in improving walking ability	dose-related histopathological improvement	effective in improving cartilage structure
